According to PubChem BioAssay AID2060506 (Molecular Pharmacology Branch, DTP, NCI, 2025):
pIC50: −log10 of the molar value.

Tested on: 598228-144-R-J1-PDC complex spheroid viability
Experiment: Anticancer human tumor 598228-144-R-J1-PDC patient-derived serous endometrial adenocarcinoma cell line growth inhibition [GQUAD]
Details: for pIC50: curve of first compound; for viability, T/C: stronger effect = lower value
Method in brief: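 Multi-cell-type spheroids of tumor cells with HUVEC and mesenchymal stem cells, treated with drug combinations. Concentrations descend in half-log steps from near clinical Cmax, or from 10 microM where Cmax is unknown; viability read-out.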

[1] = second compound 0.0316 µM, first compound 0.0316 µM
[2] = second compound 0.0316 µM, first compound 0.1 µM
[3] = second compound 0.0316 µM, first compound 0.316 µM
[4] = second compound 0.0316 µM, first compound 1 µM
[5] = second compound 0.0316 µM, first compound 3.16 µM
[6] = second compound 0.0316 µM, first compound 10 µM
[7] = second compound 0.1 µM, first compound 0.0316 µM
[8] = second compound 0.1 µM, first compound 0.1 µM
[9] = second compound 0.1 µM, first compound 0.316 µM
[10] = second compound 0.1 µM, first compound 1 µM
[11] = second compound 0.1 µM, first compound 3.16 µM
[12] = second compound 0.1 µM, first compound 10 µM
[13] = second compound 0.316 µM, first compound 0.0316 µM
[14] = second compound 0.316 µM, first compound 0.1 µM
[15] = second compound 0.316 µM, first compound 0.316 µM
[16] = second compound 0.316 µM, first compound 1 µM
[17] = second compound 0.316 µM, first compound 3.16 µM
[18] = second compound 0.316 µM, first compound 10 µM
[19] = second compound 1 µM, first compound 0.0316 µM
[20] = second compound 1 µM, first compound 0.1 µM
[21] = second compound 1 µM, first compound 0.316 µM
[22] = second compound 1 µM, first compound 1 µM
[23] = second compound 1 µM, first compound 3.16 µM
[24] = second compound 1 µM, first compound 10 µM
[25] = second compound 3.16 µM, first compound 0.0316 µM
[26] = second compound 3.16 µM, first compound 0.1 µM
[27] = second compound 3.16 µM, first compound 0.316 µM
[28] = second compound 3.16 µM, first compound 1 µM
[29] = second compound 3.16 µM, first compound 3.16 µM
[30] = second compound 3.16 µM, first compound 10 µM
[31] = second compound 10 µM, first compound 0.0316 µM
[32] = second compound 10 µM, first compound 0.1 µM
[33] = second compound 10 µM, first compound 0.316 µM
[34] = second compound 10 µM, first compound 1 µM
[35] = second compound 10 µM, first compound 3.16 µM
[36] = second compound 10 µM, first compound 10 µM
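Also: spheroids exposed to the agents for one week before reading.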
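For viability, T/C in this document: percent of vehicle DMSO control viability so 100% = untreated growth.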

`C=CC(=O)N1CCN(c2nc(=O)n(-c3c(C)ccnc3C(C)C)c3nc(-c4c(O)cccc4F)c(F)cc23)C(C)C1` (stereo unspecified) + CN(C)c1ccc(Nc2c3ccc(NC(=O)CCN4CCCC4)cc3nc3cc(NC(=O)CCN4CCCC4)ccc23)cc1 showed a pIC50 (second compound 0.0316 µM) of less than 5.00, a pIC50 (second compound 0.1 µM) of less than 5.00 and a pIC50 (second compound 0.316 µM) of less than 5.00. It also gave a pIC50 (second compound 1 µM) of less than 5.00, a pIC50 (second compound 3.16 µM) of less than 5.00 and a pIC50 (second compound 10 µM) of less than 5.00. It also gave a viability, T/C [1] of 94.4%, a viability, T/C [2] of 105% and a viability, T/C [3] of 101%. It also gave a viability, T/C [4] of 120%, a viability, T/C [5] of 122% and a viability, T/C [6] of 122%. It also gave a viability, T/C [7] of 93.6%, a viability, T/C [8] of 103% and a viability, T/C [9] of 122%. It also gave a viability, T/C [10] of 122%, a viability, T/C [11] of 119% and a viability, T/C [12] of 109%. It also gave a viability, T/C [13] of 97.8%, a viability, T/C [14] of 112% and a viability, T/C [15] of 105%. For the same compound, the viability, T/C [16] was 123%, the viability, T/C [17] was 140% and the viability, T/C [18] was 110%. The viability, T/C [19] was 80.8%, the viability, T/C [20] was 105% and the viability, T/C [21] was 103%. The viability, T/C [22] was 121%, the viability, T/C [23] was 135% and the viability, T/C [24] was 93.8%. The viability, T/C [25] was 93.5%, the viability, T/C [26] was 111% and the viability, T/C [27] was 114%. It also gave a viability, T/C [28] of 117%, a viability, T/C [29] of 132% and a viability, T/C [30] of 121%. For the same compound, the viability, T/C [31] was 79.6%, the viability, T/C [32] was 85.5% and the viability, T/C [33] was 115%. The viability, T/C [34] was 115%, the viability, T/C [35] was 124% and the viability, T/C [36] was 73%.

With `CC[C@@]1(O)C(=O)OCc2c1cc1n(c2=O)Cc2cc3c(CN(C)C)c(O)ccc3nc2-1` + CN(C)c1ccc(Nc2c3ccc(NC(=O)CCN4CCCC4)cc3nc3cc(NC(=O)CCN4CCCC4)ccc23)cc1 the pIC50 (second compound 0.0316 µM) was less than 6.50, the pIC50 (second compound 0.1 µM) was less than 6.50 and the pIC50 (second compound 0.316 µM) was 7.01. It also gave a pIC50 (second compound 1 µM) of 7.06, a pIC50 (second compound 3.16 µM) of 6.65 and a pIC50 (second compound 10 µM) of 7.12. For the same compound, the viability, T/C (second compound 0.0316 µM, first compound 0.000999 µM) was 84.4%, the viability, T/C (second compound 0.0316 µM, first compound 0.00316 µM) was 84.2% and the viability, T/C (second compound 0.0316 µM, first compound 0.00999 µM) was 105%. For the same compound, the viability, T/C [1] was 91.4%, the viability, T/C (second compound 0.0316 µM, first compound 0.0999 µM) was 54.6% and the viability, T/C [3] was 59.4%. For the same compound, the viability, T/C (second compound 0.1 µM, first compound 0.000999 µM) was 99.4%, the viability, T/C (second compound 0.1 µM, first compound 0.00316 µM) was 95.9% and the viability, T/C (second compound 0.1 µM, first compound 0.00999 µM) was 95.3%. For the same compound, the viability, T/C [7] was 75.5%, the viability, T/C (second compound 0.1 µM, first compound 0.0999 µM) was 56.6% and the viability, T/C [9] was 56.5%. The viability, T/C (second compound 0.316 µM, first compound 0.000999 µM) was 95.8%, the viability, T/C (second compound 0.316 µM, first compound 0.00316 µM) was 104% and the viability, T/C (second compound 0.316 µM, first compound 0.00999 µM) was 101%. It also gave a viability, T/C [13] of 72.8%, a viability, T/C (second compound 0.316 µM, first compound 0.0999 µM) of 48.5% and a viability, T/C [15] of 50.5%. For the same compound, the viability, T/C (second compound 1 µM, first compound 0.000999 µM) was 84.3%, the viability, T/C (second compound 1 µM, first compound 0.00316 µM) was 91.8% and the viability, T/C (second compound 1 µM, first compound 0.00999 µM) was 92%. For the same compound, the viability, T/C [19] was 102%, the viability, T/C (second compound 1 µM, first compound 0.0999 µM) was 42.6% and the viability, T/C [21] was 45.8%. For the same compound, the viability, T/C (second compound 3.16 µM, first compound 0.000999 µM) was 97.8%, the viability, T/C (second compound 3.16 µM, first compound 0.00316 µM) was 89.9% and the viability, T/C (second compound 3.16 µM, first compound 0.00999 µM) was 86.4%. The viability, T/C [25] was 94.6%, the viability, T/C (second compound 3.16 µM, first compound 0.0999 µM) was 57.5% and the viability, T/C [27] was 46.8%. For the same compound, the viability, T/C (second compound 10 µM, first compound 0.000999 µM) was 66.9%, the viability, T/C (second compound 10 µM, first compound 0.00316 µM) was 90.9% and the viability, T/C (second compound 10 µM, first compound 0.00999 µM) was 81.5%. It also gave a viability, T/C [31] of 62.6%, a viability, T/C (second compound 10 µM, first compound 0.0999 µM) of 48.5% and a viability, T/C [33] of 42.3%.

In the case of `CC1COCCN1c1cc(-c2ccnn2C)c2ccnc(-c3ccn[nH]3)c2n1` (stereo unspecified) + CN(C)c1ccc(Nc2c3ccc(NC(=O)CCN4CCCC4)cc3nc3cc(NC(=O)CCN4CCCC4)ccc23)cc1, the pIC50 (second compound 0.0316 µM) was 7.06, the pIC50 (second compound 0.1 µM) was 7.05 and the pIC50 (second compound 0.316 µM) was 7.03. It also gave a pIC50 (second compound 1 µM) of 6.14, a pIC50 (second compound 3.16 µM) of 6.94 and a pIC50 (second compound 10 µM) of 7.24. It also gave a viability, T/C [1] of 86%, a viability, T/C [2] of 45.6% and a viability, T/C [3] of 40.3%. It also gave a viability, T/C [4] of 43.3%, a viability, T/C [5] of 49.2% and a viability, T/C [6] of 45.2%. It also gave a viability, T/C [7] of 79.7%, a viability, T/C [8] of 46.1% and a viability, T/C [9] of 45.5%. The viability, T/C [10] was 40.5%, the viability, T/C [11] was 42.4% and the viability, T/C [12] was 43.5%. For the same compound, the viability, T/C [13] was 76.3%, the viability, T/C [14] was 51.3% and the viability, T/C [15] was 32.7%. It also gave a viability, T/C [16] of 43.9%, a viability, T/C [17] of 45.5% and a viability, T/C [18] of 34.6%. It also gave a viability, T/C [19] of 70.6%, a viability, T/C [20] of 63.8% and a viability, T/C [21] of 50.5%. It also gave a viability, T/C [22] of 50%, a viability, T/C [23] of 45.7% and a viability, T/C [24] of 38.9%. The viability, T/C [25] was 74.6%, the viability, T/C [26] was 49.6% and the viability, T/C [27] was 40%. The viability, T/C [28] was 40.6%, the viability, T/C [29] was 43.4% and the viability, T/C [30] was 25.9%. For the same compound, the viability, T/C [31] was 73.5%, the viability, T/C [32] was 29.5% and the viability, T/C [33] was 20.5%. The viability, T/C [34] was 29.7%, the viability, T/C [35] was 27.6% and the viability, T/C [36] was 14.9%.
